Results taken from publication PMC8880268, “Magnolol and Luteolin Inhibition of α-Glucosidase Activity: Kinetics and Type of Interaction Detected by In Vitro and In Silico Studies” (Pharmaceuticals, 2022).
Where “and” joins values, the source holds several entries; their conditions need not be identical. Identical values can stand only once. Entries after “also recorded” stand apart in the source; their conditions may differ. Like-named read-outs stand apart in the source and are kept apart here.

How the values were obtained:
α-glucosidase [1] = target: T1, α-glucosidase (Saccharomyces cerevisiae, UniProt P38158); experiment: Yeast α-glucosidase inhibitory assay (pNPG substrate, absorbance 405 nm); type: biochemical; conditions: for IC50: 2 mM pNPG
T1 construct: purchased Merck KGaA, Darmstadt, Germany
T1 sequence (P38158 whole entry): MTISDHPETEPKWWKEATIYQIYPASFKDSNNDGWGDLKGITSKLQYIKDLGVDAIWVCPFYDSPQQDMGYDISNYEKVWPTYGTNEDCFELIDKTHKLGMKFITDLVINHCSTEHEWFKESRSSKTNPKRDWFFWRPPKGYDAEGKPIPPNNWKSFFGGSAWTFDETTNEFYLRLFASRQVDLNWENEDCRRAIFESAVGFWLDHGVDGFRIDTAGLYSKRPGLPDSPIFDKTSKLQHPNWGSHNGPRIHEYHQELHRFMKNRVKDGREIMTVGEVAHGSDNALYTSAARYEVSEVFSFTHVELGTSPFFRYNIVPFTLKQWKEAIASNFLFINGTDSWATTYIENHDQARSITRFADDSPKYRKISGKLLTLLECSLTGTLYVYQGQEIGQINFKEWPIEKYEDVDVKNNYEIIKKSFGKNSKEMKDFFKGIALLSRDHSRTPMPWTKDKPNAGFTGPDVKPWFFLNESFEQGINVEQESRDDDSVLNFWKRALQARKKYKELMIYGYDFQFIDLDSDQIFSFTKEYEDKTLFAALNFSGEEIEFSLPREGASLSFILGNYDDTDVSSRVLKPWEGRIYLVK
Experimental: α-Glucosidase inhibitory activity was determined according to a previous method. Briefly, 0.1 mM PBS (pH 6.8) was used to dissolve α-glucosidase and pNPG. In detail, 80 μL of PBS or 80 μL of test sample were added to 96-well plates. Successively, 20 μL of enzyme (0.025–0.125 µM) were added to each well. Magnolol (10–100 μM) and luteolin (5–50 μM) were prepared in DMSO (<1% v/v). […] Each sample was incubated with α-glucosidase for 10 min at 37 °C. The reaction started by adding 200 μL of pNPG (2 mM). The absorbance values were detected at 405 nm for 60 min, using a PerkinElmer Victor Nivo microplate spectrophotometer (Waltham, MA, USA). The α-glucosidase activity in the absence of inhibitors was defined as 100%. The half-maximal inhibitory concentration (IC50) was estimated by plot of relative enzymatic activity vs. inhibitor concentration.

α-glucosidase [2] = target: T1, α-glucosidase; experiment: Kinetic analysis of yeast α-glucosidase inhibition (Michaelis–Menten and Lineweaver–Burk plots); type: biochemical; conditions: for Inhibitor Potency (relative to acarbose): from Ki values; for Vmax of α-glucosidase: converted using the Lambert–Beer relationship
Experimental: The type of enzyme inhibition exerted by inhibitors was evaluated from kinetic studies using different substrate concentrations (0.25–2.5 mM pNPG) applying Michaelis–Menten and Lineweaver–Burk plots. Inhibition constants (Ki) were determined by plots of the Y-intercept of the Lineweaver–Burk plot vs. inhibitor concentration.

α-glucosidase [3] = target: T1, α-glucosidase; experiment: Inactivation kinetics, time course of α-glucosidase activity; type: biochemical; conditions: enzyme 0.075 µM, pNPG 2 mM
Experimental: The enzyme and substrate concentrations were 0.075 µM and 2 mM, respectively.

α-glucosidase [4] = target: T1, α-glucosidase; experiment: Fluorescence quenching analysis and thermodynamic parameters; type: binding; conditions: for Ksv (Stern–Volmer quenching constant): pH 6.8, α-glucosidase 0.35 µM; for Kd: read-out: Ka (binding constant) (converted)
Experimental: The interaction of inhibitors with α-glucosidase was studied using the fluorescence quenching method. […] Measurements were made in the emission range of 300–450 nm, with an excitation of 280 nm, after 10 min of stabilization. The fluorescent spectra of α-glucosidase (0.35 µM) and each inhibitor (0–1.0 µM) were carried out at three different temperatures (298, 304, and 310 K) and the bandwidths were set at 5 nm for both emission and excitation slits. For each sample, three fluorescence spectra were acquired, and the blank was subtracted. The compound quenching mechanism was assessed using the Stern–Volmer equation: F0 / F = 1 + Ksv[Q] = 1 + Kq^.τo[Q], where F0 and F are the fluorescence measure in absence and in presence of different concentrations of quencher, respectively; Ksv is the Stern–Volmer quenching constant; Kq is the coefficient of quencher rate coefficient; τ0 is the life time of the excited state; and [Q] is the concentration of the quencher.
Further elaboration of the equilibrium within the free and bound molecules can be achieved through the analysis of the fluorescence emission data utilizing the following equation: log (F0 − F) / F = log Ka + n log [Q], which obtains the binding constant (Ka) and the number of binding sites per protein (n) for the enzyme-inhibitor system.
Thermodynamic spontaneity is an important factor in the study of protein-ligand interaction. A system tends not only toward a lower energy state (enthalpy, ΔH), but also according to a state of disorder (entropy, ΔS). Thermodynamic parameters were obtained according to the Van ’t Hoff equation and the plot of “log Ka vs. 1/T”. The trade-off between enthalpy (ΔH°) and entropy (ΔS°) is used to obtain the standard free energy variation (ΔG°).

α-glucosidase [5] = target: T1, α-glucosidase; experiment: Synchronous fluorescence spectra; conditions: pH 6.8, 298 K
From the text: The application of this method allows the identification of conformational changes in proteins according to the spectroscopic behavior of the tyrosine and tryptophan residues. Synchronous fluorescence spectra were collected in the emission range of 260–320 nm. The difference between excitation and emission wavelength (Δλ) was established at 15 nm (tyrosine residues) or at 60 nm (tryptophan residues).

α-glucosidase [6] = target: T1, α-glucosidase; set-up: method as in PMID 24333230; conditions: ref 17; cited from earlier work
α-glucosidase [7] = conditions: cited from earlier work
[8] = 298–310 K, Van ’t Hoff equation

SMILES: O=c1cc(-c2ccc(O)c(O)c2)oc2cc(O)cc(O)c12 [Luteolin, 3’,4’,5,7-tetrahydroxyflavone]
- reversibility of inhibition (α-glucosidase [1]; plots v vs. [α-glucosidase] at different inhibitor concentrations): reversible inhibition
- IC50 (α-glucosidase [1]; α-glucosidase 0.025 × 10^−6 M, read-out: IC50): 14 ± 10.5 µM
- IC50 (α-glucosidase [1]; α-glucosidase 0.05 × 10^−6 M, read-out: IC50): 21.6 ± 11.7 µM
- IC50 (α-glucosidase [1]; α-glucosidase 0.05 × 10^−6 M, read-out: −Log IC50 (converted)): 21.9 µM
- IC50 (α-glucosidase [1]; α-glucosidase 0.075 × 10^−6 M, read-out: IC50): 32.3 ± 11.7 µM
- IC50 (α-glucosidase [1]; α-glucosidase 0.125 × 10^−6 M, read-out: IC50): 59.4 ± 12.3 µM
- Ki’ (binding constant of the inhibitor to the substrate-enzyme complex) (α-glucosidase [2]; 0.075 µM α-glucosidase): 35.4 µM
- Ki (α-glucosidase [2]; 0.075 µM α-glucosidase, secondary plots of slope versus [I], read-out: Ki (binding constant of the inhibitor to the free enzyme)): 34.2 µM
- type of inhibition (α-glucosidase [2]; Michaelis–Menten and Lineweaver–Burk plots): non-competitive inhibition; also recorded: non-competitive reversible inhibitor
- Inhibitor Potency (relative to acarbose) (α-glucosidase [2]): 10.4
- Inhibitor Potency (relative to acarbose) (α-glucosidase [2]; listed as luteolin): ≥ 10
- Kcat of α-glucosidase (α-glucosidase [2]; inhibitor 5 µM, 0.075 µM α-glucosidase): 2.95 ± 0.12 s⁻¹
- Kcat of α-glucosidase (α-glucosidase [2]; inhibitor 10 µM, 0.075 µM α-glucosidase): 2.65 ± 0.13 s⁻¹
- Kcat of α-glucosidase (α-glucosidase [2]; inhibitor 25 µM, 0.075 µM α-glucosidase): 2.02 ± 0.12 s⁻¹
- Vmax of α-glucosidase (α-glucosidase [2]; inhibitor 25 µM): 9.10 ± 0.50 µM/min
- Kcat of α-glucosidase (α-glucosidase [2]; inhibitor 40 µM, 0.075 µM α-glucosidase): 1.78 ± 0.12 s⁻¹
- Vmax of α-glucosidase (α-glucosidase [2]; inhibitor 40 µM): 8.00 ± 0.50 µM/min
- Kcat of α-glucosidase (α-glucosidase [2]; inhibitor 50 µM, 0.075 µM α-glucosidase): 1.41 ± 0.11 s⁻¹
- Vmax of α-glucosidase (α-glucosidase [2]; inhibitor 50 µM): 6.34 ± 0.60 µM/min
- Inactivation rate constant K (α-glucosidase [3]; inhibitor 5 µM): 2.67 ± 0.08 10^−4 s^−1
- Inactivation rate constant K (α-glucosidase [3]; inhibitor 10 µM): 2.78 ± 0.08 10^−4 s^−1
- Inactivation rate constant K (α-glucosidase [3]; inhibitor 25 µM): 2.81 ± 0.03 10^−4 s^−1
- Inactivation rate constant K (α-glucosidase [3]; inhibitor 40 µM): 2.82 ± 0.04 10^−4 s^−1
- Inactivation rate constant K (α-glucosidase [3]; inhibitor 50 µM): 2.84 ± 0.01 10^−4 s^−1
- Kq (bimolecular quenching constant) (α-glucosidase [4]; 298 K): 23.22 ± 0.159 10^13 M^−1 s^−1
- n (number of binding sites) (α-glucosidase [4]; 298 K): 1.10
- ΔG° (free energy change) (α-glucosidase [4]; 298 K, Van ’t Hoff equation): -0.547 kcal/mol
- Ksv (Stern–Volmer quenching constant) (α-glucosidase [4]; 298 K): 23.22 ± 0.16 10^5 M^−1
- Kd (α-glucosidase [4]; 298 K): 0.402 µM
- ΔH° (enthalpy change) (α-glucosidase [4]; [8]): -2.18 kcal/mol
- ∆S° (entropy change) (α-glucosidase [4]; [8]): −22.95 J mol^−1K^−1
- Kq (bimolecular quenching constant) (α-glucosidase [4]; 304 K): 21.73 ± 0.141 10^13 M^−1 s^−1
- n (number of binding sites) (α-glucosidase [4]; 304 K): 1.28
- ΔG° (free energy change) (α-glucosidase [4]; 304 K, Van ’t Hoff equation): -0.514 kcal/mol
- Ksv (Stern–Volmer quenching constant) (α-glucosidase [4]; 304 K): 21.73 ± 0.14 10^5 M^−1
- Kd (α-glucosidase [4]; 304 K): 0.417 µM
- Kq (bimolecular quenching constant) (α-glucosidase [4]; 310 K): 18.68 ± 0.120 10^13 M^−1 s^−1
- n (number of binding sites) (α-glucosidase [4]; 310 K): 1.34
- ΔG° (free energy change) (α-glucosidase [4]; 310 K, Van ’t Hoff equation): -0.48 kcal/mol
- Ksv (Stern–Volmer quenching constant) (α-glucosidase [4]; 310 K): 18.68 ± 0.12 10^5 M^−1
- Kd (α-glucosidase [4]; 310 K): 0.464 µM
- fluorescence quenching mechanism (α-glucosidase [4]; based on Ksv and Kq values): static quenching mechanism
- number of binding sites (α-glucosidase [4]; no temperature stated): approximately 1
- shift of synchronous fluorescence maximum (α-glucosidase [5]; ∆λ = 15 nm (tyrosine residues)): blue shift from 286 to 283
- shift of synchronous fluorescence maximum (α-glucosidase [5]; ∆λ = 60 nm (tryptophan residues)): no modification
- distance between inhibitor and α-glucosidase (α-glucosidase [6]): 4.56 nm
- times more potent than acarbose (α-glucosidase [7]; first of 'respectively', from literature IC50 values ref 18): 13 times
- Ki (α-glucosidase [7]; ref 4): 29 µM and 38 µM
- IC50 (α-glucosidase [7]; ref 6): 46 µM
- Ki (α-glucosidase [7]; ref 17): 140 µM
- IC50 (α-glucosidase [7]; ref 18): 13.1 µM
- times more potent than acarbose (α-glucosidase [7]; second of 'respectively', from literature IC50 values ref 6): 17 times
